Measurements from the NIST ThermoML archive (doi:10.1016/j.jct.2011.08.016).
Numbers after ± are expanded uncertainties.

Test: xn = mol fraction of the nth substance listed
Conditions: Liquid, Vibrating tube method

CCCCCCCCCC [decane] + CCCCCCCC
mass density (343.11 K, 1000 kPa, x2 = 0.0616): 691.23 ± 0.41 kg/m3
mass density (343.11 K, 2000 kPa, x2 = 0.0616): 692.25 ± 0.42 kg/m3
mass density (343.11 K, 3000 kPa, x2 = 0.0616): 693.27 ± 0.42 kg/m3
mass density (343.11 K, 4000 kPa, x2 = 0.0616): 694.28 ± 0.43 kg/m3
mass density (343.11 K, 5000 kPa, x2 = 0.0616): 695.27 ± 0.43 kg/m3
mass density (343.11 K, 6000 kPa, x2 = 0.0616): 696.28 ± 0.44 kg/m3
mass density (343.11 K, 7000 kPa, x2 = 0.0616): 697.25 ± 0.44 kg/m3
mass density (343.11 K, 8000 kPa, x2 = 0.0616): 698.24 ± 0.45 kg/m3
mass density (343.11 K, 9000 kPa, x2 = 0.0616): 699.21 ± 0.45 kg/m3
mass density (343.11 K, 10000 kPa, x2 = 0.0616): 700.15 ± 0.46 kg/m3
mass density (343.11 K, 10990 kPa, x2 = 0.0616): 701.09 ± 0.46 kg/m3
mass density (343.11 K, 12000 kPa, x2 = 0.0616): 702.04 ± 0.47 kg/m3
mass density (343.11 K, 13000 kPa, x2 = 0.0616): 702.94 ± 0.47 kg/m3
mass density (343.11 K, 14000 kPa, x2 = 0.0616): 703.83 ± 0.48 kg/m3
mass density (343.11 K, 15000 kPa, x2 = 0.0616): 704.71 ± 0.49 kg/m3
mass density (343.11 K, 16000 kPa, x2 = 0.0616): 705.59 ± 0.49 kg/m3
mass density (343.11 K, 17000 kPa, x2 = 0.0616): 706.44 ± 0.5 kg/m3
mass density (343.11 K, 18000 kPa, x2 = 0.0616): 707.29 ± 0.5 kg/m3
mass density (343.11 K, 19000 kPa, x2 = 0.0616): 708.13 ± 0.51 kg/m3
mass density (343.11 K, 20000 kPa, x2 = 0.0616): 708.97 ± 0.52 kg/m3
mass density (343.11 K, 21000 kPa, x2 = 0.0616): 709.77 ± 0.52 kg/m3
mass density (343.11 K, 22000 kPa, x2 = 0.0616): 710.54 ± 0.53 kg/m3
mass density (343.11 K, 23000 kPa, x2 = 0.0616): 711.34 ± 0.53 kg/m3
mass density (343.11 K, 24000 kPa, x2 = 0.0616): 712.11 ± 0.54 kg/m3
mass density (343.11 K, 25000 kPa, x2 = 0.0616): 712.86 ± 0.55 kg/m3
mass density (343.12 K, 1000 kPa, x2 = 0.2801): 686 ± 0.42 kg/m3
mass density (343.12 K, 1000 kPa, x2 = 0.5314): 678.98 ± 0.42 kg/m3
mass density (343.12 K, 1000 kPa, x2 = 0.7736): 671.23 ± 0.42 kg/m3
mass density (343.12 K, 2000 kPa, x2 = 0.2801): 686.96 ± 0.42 kg/m3
mass density (343.12 K, 2000 kPa, x2 = 0.5314): 680.05 ± 0.42 kg/m3
mass density (343.12 K, 2000 kPa, x2 = 0.7736): 672.36 ± 0.43 kg/m3
mass density (343.12 K, 3000 kPa, x2 = 0.2801): 688 ± 0.42 kg/m3
mass density (343.12 K, 3000 kPa, x2 = 0.5314): 681.13 ± 0.43 kg/m3
mass density (343.12 K, 3000 kPa, x2 = 0.7736): 673.44 ± 0.43 kg/m3
mass density (343.12 K, 4000 kPa, x2 = 0.2801): 689.01 ± 0.43 kg/m3
mass density (343.12 K, 4000 kPa, x2 = 0.5314): 682.2 ± 0.43 kg/m3
mass density (343.12 K, 4000 kPa, x2 = 0.7736): 674.54 ± 0.44 kg/m3
mass density (343.12 K, 5000 kPa, x2 = 0.2801): 690.04 ± 0.43 kg/m3
mass density (343.12 K, 5000 kPa, x2 = 0.5314): 683.26 ± 0.44 kg/m3
mass density (343.12 K, 5000 kPa, x2 = 0.7736): 675.64 ± 0.44 kg/m3
mass density (343.12 K, 6000 kPa, x2 = 0.2801): 691.09 ± 0.44 kg/m3
mass density (343.12 K, 6000 kPa, x2 = 0.5314): 684.32 ± 0.44 kg/m3
mass density (343.12 K, 6000 kPa, x2 = 0.7736): 676.76 ± 0.45 kg/m3
mass density (343.12 K, 7000 kPa, x2 = 0.2801): 692.03 ± 0.44 kg/m3
mass density (343.12 K, 7000 kPa, x2 = 0.5314): 685.36 ± 0.45 kg/m3
mass density (343.12 K, 7000 kPa, x2 = 0.7736): 677.83 ± 0.45 kg/m3
mass density (343.12 K, 8000 kPa, x2 = 0.2801): 693.02 ± 0.45 kg/m3
mass density (343.12 K, 8000 kPa, x2 = 0.5314): 686.38 ± 0.45 kg/m3
mass density (343.12 K, 8000 kPa, x2 = 0.7736): 678.88 ± 0.46 kg/m3
mass density (343.12 K, 9000 kPa, x2 = 0.2801): 694 ± 0.45 kg/m3
mass density (343.12 K, 9000 kPa, x2 = 0.5314): 687.39 ± 0.46 kg/m3
mass density (343.12 K, 9000 kPa, x2 = 0.7736): 679.92 ± 0.46 kg/m3
mass density (343.12 K, 10000 kPa, x2 = 0.2801): 694.95 ± 0.46 kg/m3
mass density (343.12 K, 10000 kPa, x2 = 0.5314): 688.38 ± 0.46 kg/m3
mass density (343.12 K, 10000 kPa, x2 = 0.7736): 680.93 ± 0.47 kg/m3
mass density (343.12 K, 10990 kPa, x2 = 0.2801): 695.95 ± 0.47 kg/m3
mass density (343.12 K, 10990 kPa, x2 = 0.5314): 689.37 ± 0.47 kg/m3
mass density (343.12 K, 10990 kPa, x2 = 0.7736): 681.98 ± 0.48 kg/m3
mass density (343.12 K, 12000 kPa, x2 = 0.2801): 696.9 ± 0.47 kg/m3
mass density (343.12 K, 12000 kPa, x2 = 0.5314): 690.34 ± 0.48 kg/m3
mass density (343.12 K, 12000 kPa, x2 = 0.7736): 682.98 ± 0.48 kg/m3
mass density (343.12 K, 13000 kPa, x2 = 0.2801): 697.84 ± 0.48 kg/m3
mass density (343.12 K, 13000 kPa, x2 = 0.5314): 691.29 ± 0.48 kg/m3
mass density (343.12 K, 13000 kPa, x2 = 0.7736): 683.94 ± 0.49 kg/m3
mass density (343.12 K, 14000 kPa, x2 = 0.2801): 698.78 ± 0.48 kg/m3
mass density (343.12 K, 14000 kPa, x2 = 0.5314): 692.24 ± 0.49 kg/m3
mass density (343.12 K, 14000 kPa, x2 = 0.7736): 684.91 ± 0.49 kg/m3
mass density (343.12 K, 15000 kPa, x2 = 0.2801): 699.72 ± 0.49 kg/m3
mass density (343.12 K, 15000 kPa, x2 = 0.5314): 693.17 ± 0.49 kg/m3
mass density (343.12 K, 15000 kPa, x2 = 0.7736): 685.89 ± 0.5 kg/m3
mass density (343.12 K, 16000 kPa, x2 = 0.2801): 700.6 ± 0.5 kg/m3
mass density (343.12 K, 16000 kPa, x2 = 0.5314): 694.09 ± 0.5 kg/m3
mass density (343.12 K, 16000 kPa, x2 = 0.7736): 686.84 ± 0.51 kg/m3
mass density (343.12 K, 17000 kPa, x2 = 0.2801): 701.51 ± 0.5 kg/m3
mass density (343.12 K, 17000 kPa, x2 = 0.5314): 695 ± 0.51 kg/m3
mass density (343.12 K, 17000 kPa, x2 = 0.7736): 687.8 ± 0.51 kg/m3
mass density (343.12 K, 18000 kPa, x2 = 0.2801): 702.35 ± 0.51 kg/m3
mass density (343.12 K, 18000 kPa, x2 = 0.5314): 695.89 ± 0.51 kg/m3
mass density (343.12 K, 18000 kPa, x2 = 0.7736): 688.72 ± 0.52 kg/m3
mass density (343.12 K, 19000 kPa, x2 = 0.2801): 703.17 ± 0.51 kg/m3
mass density (343.12 K, 19000 kPa, x2 = 0.5314): 696.76 ± 0.52 kg/m3
mass density (343.12 K, 19000 kPa, x2 = 0.7736): 689.61 ± 0.53 kg/m3
mass density (343.12 K, 20000 kPa, x2 = 0.2801): 704.02 ± 0.52 kg/m3
mass density (343.12 K, 20000 kPa, x2 = 0.5314): 697.62 ± 0.53 kg/m3
mass density (343.12 K, 20000 kPa, x2 = 0.7736): 690.48 ± 0.54 kg/m3
mass density (343.12 K, 21000 kPa, x2 = 0.2801): 704.83 ± 0.53 kg/m3
mass density (343.12 K, 21000 kPa, x2 = 0.5314): 698.47 ± 0.53 kg/m3
mass density (343.12 K, 21000 kPa, x2 = 0.7736): 691.35 ± 0.54 kg/m3
mass density (343.12 K, 22000 kPa, x2 = 0.2801): 705.63 ± 0.53 kg/m3
mass density (343.12 K, 22000 kPa, x2 = 0.5314): 699.29 ± 0.54 kg/m3
mass density (343.12 K, 22000 kPa, x2 = 0.7736): 692.2 ± 0.55 kg/m3
mass density (343.12 K, 23000 kPa, x2 = 0.2801): 706.41 ± 0.54 kg/m3
mass density (343.12 K, 23000 kPa, x2 = 0.5314): 700.11 ± 0.55 kg/m3
